Data published in patent US6013642A, “Use of estrone derivatives as steroid sulphatase inhibitors” (priority 1994, dated 2000).

How the values were obtained:
[1] = test system: mouse contact sensitisation model; experiment: Contact sensitisation (oxazalone, ear swelling) in mice; assay type: in vivo
Experimental: 1. Contact Sensitisation (CS)
On day 0, mice were painted on their shaved right flank with 50 μl 2.5% oxazalone or vehicle (acetone 4:1 olive oil). On day 5 animals were challenged on their dorsal right ear surface with 25 μl of either 0.75% or 0.25% oxazalone. Prior to ear challenge, and 24, 48 and 72 hour post challenge ear thickness was measured using an engineer's micrometers. Ear swelling is determined as the difference in thickness prior and post challenge. The data are expressed as percentage change from the vehicle treated groups given sensitisation and challenge.
DHEA, DHEAS were administered at various times, generally at time of sensitisation (day 0) and time of challenge (day 3 or 4-DTH model, day 4 or 5-(CS-model) in order to obtain an augmentation of the immune response above non-steroid treated animals.
Different doses of the inhibitors have been used, and compared to the effect of dexamethasone as potential immunosuppressive/anti-inflammatory agents.

[2] = test system: mouse contact sensitisation model; experiment: Cellular infiltrate (anti-CD3 / anti-Mac-1 positive cells) in challenged ears, contact sensitisation; assay type: in vivo, mice; details: Experiment 7, FIG. 10, 24 h following challenge
Experimental: Animals were randomised into 7 groups (n=7-10) and steroids given on days 0 and 5. At 24 h following challenge, ears were removed, fixed and stained with either an anti-CD3 (T-cells) or anti-Mac-1 (monocytes/macrophages) antibody and the number of positive cells counted in 10 random fields.

[3] = test system: collagen II-induced arthritis; experiment: Collagen II-induced arthritis in mice; assay type: in vivo, Male DBA/1 mice; details: FIG. 13; CT2251 10 mg/kg on day -1 and weekly
Experimental: Male DBA/1 mice were sensitised with type II collagen into the base of the tail in FCA in day 0. These animals received a further injection of CII in FICA (Freunds Incomplete Adjuvant) on day 18 and incidence and severity of arthritis assessed from day 25. Mice were randomised into 3 groups (n=10).

carrageenan pleurisy = experiment: Carrageenan pleurisy; assay type: in vivo, Wistar Rats; details: FIG. 14; CT2251 10 mg/kg p.o. at -24 h and -1 h; six hours
Experimental: Wistar Rats were anaesthetised and given intra-pleural injections of 0.5% carrageenan in saline at time 0. Six hours later the animals were killed and pleural cavity lavaged with 1 ml. citrated saline. Volume of fluid exudate and exudate cell concentration were measured. Animals were randomised to 5 treatment groups (n=6).

C[C@]12CC[C@@H]3c4ccc(OS(N)(=O)=O)cc4CC[C@H]3[C@@H]1CCC2=O [CT 2251, Estrone 3-0-sulphamate]
normal ear swelling response, inhibitor on its own ([1]; Experiment 4, FIG. 7, CT2251 0.1 and 10 mg/kg s.c. days 0 and 4): significantly inhibited the normal ear swelling response | effect on DHEA-augmented ear swelling ([1]; Experiment 4, FIG. 7, CT2251 0.1 and 10 mg/kg with DHEA 5 mg/kg s.c. days 0 and 4): not that seen with DHEA | effect on DHEAS-augmented ear swelling ([1]; Experiment 4, FIG. 7, CT2251 0.1 and 10 mg/kg with DHEAS 5 mg/kg s.c. days 0 and 4): reversed the augmentation seen with DHEAS | degree of ear swelling ([1]; Experiment 5, FIG. 8, CT2251 0.001-0.3 mg/kg s.c. days 0 and 4, 24 h): inhibited by CT2251 treatment in a dose-dependent manner | inhibitory effect on ear swelling in presence of increasing substrate ([1]; Experiment 6, FIG. 9, CT2251 0.1 mg/kg with DHEAS 5, 15, 50 mg/kg days 0 and 4, 24 h): can be reverse by increasing doses of DHEAS | minimal effective dose ([1]; Mus musculus, sc, Experiment 5, FIG. 8, s.c. days 0 and 4, 24 h, read-out: effective dose for inhibition of ear swelling): ≥ 0.1 mg/kg | effect on DHEAS-augmented cell infiltrate ([2]; CT2251 10 mg/kg with DHEAS 5 mg/kg): effectively reversed | number of infiltrating CD3 positive cells, inhibitor on its own ([2]; CT2251 10 mg/kg): able to further reduce the number of infiltrating CD3 positive cells | development of arthritis (incidence and severity) [3]: prevented the development of any disease | reduction of cell infiltrate (carrageenan pleurisy): 28% | reduction of exudate volume (carrageenan pleurisy): 43%
